Experimental data as given in paper PMC12514971 (Protein science : a publication of the Protein Society, 2025).

Target: T1, ADAR1p150 (Zα domain) (Homo sapiens, UniProt P55265)
T1 sequence (P55265 133-199 limits assumed): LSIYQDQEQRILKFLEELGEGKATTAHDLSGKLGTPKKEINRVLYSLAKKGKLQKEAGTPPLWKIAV
Test: MST titration
Assay type: binding

Kd: > 774 µM
SMILES: O=C(O)c1cc(=O)c2c(OCC(O)COc3cccc4oc(C(=O)O)cc(=O)c34)cccc2o1 [cromolyn]
